# Test results taken from the supplement of paper PMC10307832.
# How the values were obtained:
# Test in all cases: relative viability (nuclei count vs DMSO), 5 days (fraction); higher = more cells survive
# HCC-366 = test system: HCC-366
# How it was run: (§1)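 Medians of duplicate plates are given as relative viability. That measure is the nuclei count in treated wells divided by the count in vehicle wells. Counts were taken on 4× images of lung cancer cell lines in 1536-well plates, 5 days after pin-tool dosing the day after seeding with one drug alone or a fixed anchor-drug dose plus five library-drug doses (not always all listed) in √10 steps.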
# NCI-H322M = test system: NCI-H322M
# How it was run: as §1
# NCI-H2228 = test system: NCI-H2228
# How it was run: as §1
# ABC-1 = test system: ABC-1
# How it was run: as §1
# NCI-H1993 = test system: NCI-H1993
# How it was run: as §1
# EPLC-272H = test system: EPLC-272H
# How it was run: as §1
# SK-MES-1 = test system: SK-MES-1
# How it was run: as §1
# NCI-H1975 = test system: NCI-H1975
# How it was run: as §1
# EKVX = test system: EKVX
# How it was run: as §1
# NCI-H2087 = test system: NCI-H2087
# How it was run: as §1
# COR-L 105 = test system: COR-L 105
# How it was run: as §1
# NCI-H441 = test system: NCI-H441
# How it was run: as §1
# H3255 = test system: H3255
# How it was run: as §1
# NCI-H1792 = test system: NCI-H1792
# How it was run: as §1
# NCI-H2085 = test system: NCI-H2085
# How it was run: as §1
# NCI-H2009 = test system: NCI-H2009
# How it was run: as §1
# CAL-12T = test system: CAL-12T
# How it was run: as §1
# HCC-827 = test system: HCC-827
# How it was run: as §1
# NCI-H460 = test system: NCI-H460
# How it was run: as §1
# NCI-H1355 = test system: NCI-H1355
# How it was run: as §1
structure (smiles),measurement,setting,value
CCNC(=O)c1noc(-c2cc(C(C)C)c(O)cc2O)c1-c1ccc(CN2CCOCC2)cc1 [Luminespib] + Cc1nc(NC(=O)N2CCC[C@H]2C(N)=O)sc1-c1ccnc(C(C)(C)C(F)(F)F)c1 [Alpelisib] (partner 2 µM),relative viability,HCC-366; first compound 0.002 µM,0.442
same,relative viability,HCC-366; first compound 0.006325 µM,0.496
same,relative viability,HCC-366; first compound 0.02 µM,0.312
same,relative viability,HCC-366; first compound 0.06325 µM,0.0181
same,relative viability,HCC-366; first compound 0.2 µM,0.0182
same,relative viability,NCI-H322M; first compound 0.002 µM,0.774
same,relative viability,NCI-H322M; first compound 0.006325 µM,0.711
same,relative viability,NCI-H322M; first compound 0.02 µM,0.588
same,relative viability,NCI-H322M; first compound 0.06325 µM,0.751
same,relative viability,NCI-H322M; first compound 0.2 µM,0.807
same,relative viability,NCI-H2228; first compound 0.002 µM,0.808
same,relative viability,NCI-H2228; first compound 0.006325 µM,0.595
same,relative viability,NCI-H2228; first compound 0.02 µM,0.156
same,relative viability,NCI-H2228; first compound 0.06325 µM,0.142
same,relative viability,NCI-H2228; first compound 0.2 µM,0.136
same,relative viability,ABC-1; first compound 0.002 µM,0.976
same,relative viability,ABC-1; first compound 0.006325 µM,0.95
same,relative viability,ABC-1; first compound 0.02 µM,1.15
same,relative viability,ABC-1; first compound 0.06325 µM,0.392
same,relative viability,ABC-1; first compound 0.2 µM,0.3
same,relative viability,NCI-H1993; first compound 0.002 µM,0.676
same,relative viability,NCI-H1993; first compound 0.006325 µM,0.74
same,relative viability,NCI-H1993; first compound 0.02 µM,0.588
same,relative viability,NCI-H1993; first compound 0.06325 µM,0.606
same,relative viability,NCI-H1993; first compound 0.2 µM,0.548
same,relative viability,EPLC-272H; first compound 0.006325 µM,0.811
same,relative viability,EPLC-272H; first compound 0.02 µM,0.674
same,relative viability,EPLC-272H; first compound 0.06325 µM,0.879
same,relative viability,EPLC-272H; first compound 0.2 µM,0.93
same,relative viability,SK-MES-1; first compound 0.002 µM,0.82
same,relative viability,SK-MES-1; first compound 0.006325 µM,0.858
same,relative viability,SK-MES-1; first compound 0.02 µM,0.593
same,relative viability,SK-MES-1; first compound 0.06325 µM,0.306
same,relative viability,SK-MES-1; first compound 0.2 µM,0.133
same,relative viability,NCI-H1975; first compound 0.002 µM,0.667
same,relative viability,NCI-H1975; first compound 0.006325 µM,0.512
same,relative viability,NCI-H1975; first compound 0.02 µM,0.233
same,relative viability,NCI-H1975; first compound 0.06325 µM,0.137
same,relative viability,NCI-H1975; first compound 0.2 µM,0.126
same,relative viability,EKVX; first compound 0.002 µM,0.972
same,relative viability,EKVX; first compound 0.006325 µM,0.928
same,relative viability,EKVX; first compound 0.02 µM,0.514
same,relative viability,EKVX; first compound 0.06325 µM,1.07
same,relative viability,EKVX; first compound 0.2 µM,0.315
same,relative viability,NCI-H2087; first compound 0.002 µM,1.2
same,relative viability,NCI-H2087; first compound 0.006325 µM,0.907
same,relative viability,NCI-H2087; first compound 0.02 µM,1.3
same,relative viability,NCI-H2087; first compound 0.06325 µM,0.193
same,relative viability,NCI-H2087; first compound 0.2 µM,0.184
same,relative viability,COR-L 105; first compound 0.002 µM,1.04
same,relative viability,COR-L 105; first compound 0.006325 µM,0.96
same,relative viability,COR-L 105; first compound 0.02 µM,1.35
same,relative viability,COR-L 105; first compound 0.06325 µM,0.343
same,relative viability,COR-L 105; first compound 0.2 µM,0.181
same,relative viability,NCI-H441; first compound 0.002 µM,0.619
same,relative viability,NCI-H441; first compound 0.006325 µM,0.825
same,relative viability,NCI-H441; first compound 0.02 µM,0.739
same,relative viability,NCI-H441; first compound 0.06325 µM,0.126
same,relative viability,NCI-H441; first compound 0.2 µM,0.148
same,relative viability,H3255; first compound 0.002 µM,0.775
same,relative viability,H3255; first compound 0.006325 µM,0.636
same,relative viability,H3255; first compound 0.02 µM,0.508
same,relative viability,H3255; first compound 0.06325 µM,0.586
same,relative viability,H3255; first compound 0.2 µM,0.195
same,relative viability,NCI-H1792; first compound 0.002 µM,0.595
same,relative viability,NCI-H1792; first compound 0.006325 µM,0.621
same,relative viability,NCI-H1792; first compound 0.02 µM,0.355
same,relative viability,NCI-H1792; first compound 0.06325 µM,0.308
same,relative viability,NCI-H1792; first compound 0.2 µM,0.1
same,relative viability,NCI-H2085; first compound 0.002 µM,0.967
same,relative viability,NCI-H2085; first compound 0.006325 µM,0.989
same,relative viability,NCI-H2085; first compound 0.02 µM,0.937
same,relative viability,NCI-H2085; first compound 0.06325 µM,0.542
same,relative viability,NCI-H2085; first compound 0.2 µM,0.397
same,relative viability,NCI-H2009; first compound 0.002 µM,1.29
same,relative viability,NCI-H2009; first compound 0.006325 µM,1.02
same,relative viability,NCI-H2009; first compound 0.02 µM,1.28
same,relative viability,NCI-H2009; first compound 0.06325 µM,0.698
same,relative viability,NCI-H2009; first compound 0.2 µM,0.0841
same,relative viability,CAL-12T; first compound 0.002 µM,1.21
same,relative viability,CAL-12T; first compound 0.006325 µM,1.25
same,relative viability,CAL-12T; first compound 0.02 µM,1.02
same,relative viability,CAL-12T; first compound 0.06325 µM,0.192
same,relative viability,CAL-12T; first compound 0.2 µM,0.0844
same,relative viability,HCC-827; first compound 0.002 µM,1
same,relative viability,HCC-827; first compound 0.006325 µM,0.981
same,relative viability,HCC-827; first compound 0.02 µM,0.849
same,relative viability,HCC-827; first compound 0.06325 µM,0.976
same,relative viability,HCC-827; first compound 0.2 µM,0.931
same,relative viability,NCI-H460; first compound 0.002 µM,0.508
same,relative viability,NCI-H460; first compound 0.006325 µM,0.447
same,relative viability,NCI-H460; first compound 0.02 µM,0.0191
same,relative viability,NCI-H460; first compound 0.06325 µM,0.0086
same,relative viability,NCI-H460; first compound 0.2 µM,0.0122
same,relative viability,NCI-H1355; first compound 0.002 µM,0.915
same,relative viability,NCI-H1355; first compound 0.006325 µM,0.913
same,relative viability,NCI-H1355; first compound 0.02 µM,0.403
same,relative viability,NCI-H1355; first compound 0.06325 µM,0.903
same,relative viability,NCI-H1355; first compound 0.2 µM,0.594
